Measurements: US20230331655A1, “HYDROXYN[…] AND METHODS OF USE THEREOF” (UNIVERSITY OF MARYLAND, BALTIMORE, priority 2020, published 2023)
Read-outs that look alike come from different tables or passages of the source.

Test: pharmacokinetics in plasma and brain after intraperitoneal administration (UPLC-MS/MS)
Format: in vivo, mouse
Design: key to Brain Concentration over time, sex-dependent difference / Plasma Concentration over time, sex-dependent difference: F, female; M, male; NS, not statistically different
Details: for Kp / half-life / Tmax: CD-1, mouse, ip; for Kp: brain and plasma; for half-life: terminal half-life; for Brain Concentration over time, sex-dependent difference / Plasma Concentration over time, sex-dependent difference / Brain Total exposure (AUC), sex-dependent difference / Plasma Total exposure (AUC), sex-dependent difference: female vs male mice; for Brain Concentration over time, sex-dependent difference / Plasma Concentration over time, sex-dependent difference: ANOVA, Holm-Šídák post-hoc; for Brain Total exposure (AUC), sex-dependent difference / Plasma Total exposure (AUC), sex-dependent difference: t-test; for Tmax: earliest sampling time 10 min
Procedure: Male and female CD-1 mice (Charles Rivers Laboratories, Raleigh, NC, USA), 8-11 weeks old at the time of testing, were habituated to the University of Maryland (Baltimore, MD, USA) animal facility for at least one week prior to testing. Mice were group housed 4-5 per cage with a constant 12-hour light cycle (lights on/off at 07:00/19:00). Food and water were available ad libitum. All experiments were performed during the light phase. All animal studies were approved by the University of Maryland School of Medicine Institutional Animal Care and Use Committee and conducted in accordance with the National Institutes of Health Guide for the Care and Use of Laboratory Animals.
(2R,6R)-HNK hydrochloride, (2S,6S)-HNK hydrochloride, (2R,6S)-HNK, (2S,6R)-HNK, (2R,5R)-HNK, (2S,5S)-HNK, (2R,5S)-HNK, (2S,5R)-HNK, (2R,4R)-HNK, (2S,4S)-HNK, (2R,4S)-HNK, and (2S,4R)-HNK hydrochloride were synthesized at the National Center for Advancing Translation Sciences (National Institutes of Health, Rockville, MD, USA) using methods previously described in Morris et al., Org Lett 17:4572-4575 (2017), which is incorporated by reference herein in its entirety. (5R)-methyl-(2R,6R)-HNK was obtained from Organix Inc. (Woburn, MA, USA) or from the National Center for Advancing Translational Sciences (Rockville, MD, USA); synthesis and characterization are described in the Supplemental Information. All compounds were dissolved in 20% (w/v) cyclodextrin (Sigma Aldrich, USA) in saline and administered intraperitoneally (i.p.) in a volume of 7.5 ml/kg.
At 10 min (0.167 h), 30 min (0.5 h), 1 h, 2 h, and 4 h post-treatment, mice were deeply anesthetized (3.5% isoflurane for approximately 2 min). Trunk blood was collected into 1.5-ml polypropylene tubes containing 30 μl of disodium EDTA (0.5 M, pH 8.0) and kept on ice until plasma collection (<30 min). Brains were then removed, flash-frozen in isopentane, and stored at −80° C. until analysis. Blood was centrifuged at 8000×g for 6 min at 4° C. to obtain plasma. Plasma was collected into clean microcentrifuge tubes and stored at −80° C. until analysis.
Ultra-performance liquid chromatography-tandem mass spectrometry (UPLC-MS/MS) methods were developed and optimized to determine the concentration of each HNK in mouse plasma and brain samples following systemic administration. Mass spectrometric analysis was performed on a Waters Xevo TQ-S triple quadrupole instrument using electrospray ionization in positive mode with the selected reaction monitoring. The separation of HNKs from endogenous components was performed on a Waters Acquity UPLC with 0.5 ml/min flow rate and gradient elution. The mobile phase A and B were 0.1% formic acid in water and 0.1% formic acid in acetonitrile, respectively. Plasma and brain concentrations of (2R,6R)-, (2S,6S)-, (2R,4S)-, and (2S,4R)-HNK were determined by hydrophilic interaction liquid chromatography-tandem mass spectrometry (HILIC UPLC-MS/MS) using a BEH amide column (1.7μ, 2.1×50 mm). Plasma and brain concentrations of (2R,6S)-, (2S,6R)-, (2R,5R)- (2S,5S)-, (2R,5S)-, (2S,5R)-, (2R,4R)-, and (2S,4S)-HNK; and (5R)-methyl-(2R,6R)-HNK were determined by reversed phase UPLC-MS/MS based upon a previously described protocol with several modifications using a BEH C18 column ([…], 2.1×50 mm). See Moaddel et al., Talanta 82:1892-1904 (2010), and Zanos et al., Nature 533:481-486 ([…]), both of which are incorporated by reference herein in their entireties.
The gradient for HILIC UPLC method was: 0-0.2 min 98% B; 0.2-1.4 min 98% to 35% B; 1.4-1.8 min 35% to 10% B, 1.9-2.4 min 98% B. The gradient for BEH Cis UPLC method was: 0-0.2 min 1% B; 0.2-1.4 min 1% to 35% B; 1.4-1.8 min 35% to 98% B, 1.8-2.2 min 98% B, 2.3 min 1% B. The analytical run time of the UPLC methods was 2.5 min. The calibration standards and quality control samples were prepared in blank mouse plasma and brain homogenate. Calibration standards ranged from 5.0-5000 ng/ml. […]

[1] = female mice, i.p. 5 mg/kg, read-out: B:P ratio (brain to plasma AUC ratio)
[2] = male mice, i.p. 5 mg/kg, read-out: B:P ratio (brain to plasma AUC ratio)
[3] = brain, female mice, i.p. 5 mg/kg, read-out: t1/2 Brain (converted)
[4] = brain, male mice, i.p. 5 mg/kg, read-out: t1/2 Brain (converted)
[5] = plasma, female mice, i.p. 5 mg/kg, read-out: t1/2 Plasma (converted)
[6] = plasma, male mice, i.p. 5 mg/kg, read-out: t1/2 Plasma (converted)
[7] = male mice, equivalent systemic doses

SMILES | Kp [1] | Kp [2] | half-life [3] [min] | half-life [4] [min] | half-life [5] [min] | half-life [6] [min] | Brain Concentration over time, sex-dependent difference (i.p. 5 mg/kg) | Plasma Concentration over time, sex-dependent difference (i.p. 5 mg/kg) | Brain Total exposure (AUC), sex-dependent difference (i.p. 5 mg/kg) | Plasma Total exposure (AUC), sex-dependent difference (i.p. 5 mg/kg) | brain concentration at 4 h post-treatment (females, but not males, i.p. 5 mg/kg, LLOQ 5.0 ng/ml) | peak and total brain levels, lower compared to equivalent dosing with (2R,6R)-HNK (male mice) | Cmax and AUC, fold greater than those of (2R,6R)-HNK [7] | peak and total brain levels, fold greater than those of (2R,6R)-HNK [7] | Tmax (brain, both sexes, i.p. 5 mg/kg, read-out: Tmax in the brain (converted)) [min] | Tmax (plasma, both sexes, i.p. 5 mg/kg, read-out: Tmax in the plasma (converted)) [min] | Kp (both sexes, male and female mice, i.p. 5 mg/kg, read-out: brain to plasma AUC (exposure) ratio)
N[C@@]1(c2ccccc2Cl)CCC[C@@H](O)C1=O [(2R,6R)-HNK, (2R,6R)-hydroxynorketamine] | 1.3 | 1.3 | 36 | 36 | 36 | 36 | F > M at 10, 30 min | F > M at 10, 30 min | F > M | F > M |  |  |  |  |  |  | 
N[C@@]1(c2ccccc2Cl)CCC[C@H](O)C1=O [(2R,6S)-HNK] | 0.7 | 0.6 | 24 | 42 |  | 54 | NS | main effect of sex, M > F | M > F | M > F | below LLOQs | two-fold |  |  |  |  | 
N[C@]1(c2ccccc2Cl)CCC[C@@H](O)C1=O [(2S,6R)-HNK] | 1.4 | 1.2 |  |  |  | 42 | main effect of sex, F > M | NS | F > M | F > M |  | three-fold |  |  |  |  | 
N[C@]1(c2ccccc2Cl)CCC[C@H](O)C1=O [(2S,6S)-HNK, (2S,6S)-hydroxynorketamine] | 1.2 |  | 42 | 42 |  | 42 | F > M at 10, 30 min | main effect of sex, F > M | F > M | F > M |  |  | 2-3 fold | 2-3 fold |  |  | 
C[C@@H]1CC[C@@](N)(c2ccccc2Cl)C(=O)[C@@H]1O.Cl [(5R)-methyl-(2R,6R)-HNK, (2R,5R,6R)-2-amino-2-(2-chlorophenyl)-6-hydroxy-5-methylcyclohexan-1-one hydrochloride] | 0.4 | 0.4 | 42 | 48 | 48 | 48 | NS | main effect of sex, M > F | M > F | M > F |  |  |  |  | 10 | 10 | 0.4
